pKd: −log10 of the molar value. Active and inactive are the calls of the source. Cut-off read from the data, not from the text of the source, for most assays here: actives have a measured Kd and inactives only a lower limit.
What follows are molecules tested against Cyclin-dependent kinase 6 (Homo sapiens, UniProt Q00534). Conditions: not given.
Note: in the data inactive means no Kd found up to 30 µM.

Sequence of Cyclin-dependent kinase 6 (Q00534 whole entry): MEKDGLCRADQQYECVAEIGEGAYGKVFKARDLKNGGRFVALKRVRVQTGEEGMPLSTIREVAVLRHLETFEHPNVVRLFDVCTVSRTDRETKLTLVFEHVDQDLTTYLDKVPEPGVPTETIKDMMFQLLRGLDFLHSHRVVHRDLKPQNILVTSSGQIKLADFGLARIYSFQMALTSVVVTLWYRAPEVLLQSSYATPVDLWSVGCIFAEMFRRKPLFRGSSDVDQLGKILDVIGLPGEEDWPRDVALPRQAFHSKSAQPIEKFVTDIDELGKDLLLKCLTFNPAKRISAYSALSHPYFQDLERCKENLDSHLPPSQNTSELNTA

SMILES	Kd
Cc1cc(Nc2cc(N3CCN(C)CC3)nc(/C=C/c3ccccc3)n2)n[nH]1 [ENMD-2076]	> 30 µM (inactive)
CCn1c(-c2nonc2N)nc2c(C#CC(C)(C)O)ncc(OC[C@H]3CCCNC3)c21 [GSK-690693]	> 30 µM (inactive)
COc1cc2nccc(Oc3ccc(NC(=O)NC4CC4)c(Cl)c3)c2cc1C(N)=O [LENVATINIB]	> 30 µM (inactive)
Cn1cc(-c2ccc(F)c(C(F)(F)F)c2)nc1C1CCN(c2ncnc3[nH]ncc23)CC1 [LY-2584702]	> 30 µM (inactive)

The molecules below were run against Dual specificity tyrosine-phosphorylation-regulated kinase 1A (Homo sapiens, UniProt Q13627). Conditions: not given.

SMILES	Kd
COc1cc2nccc(Oc3ccc(NC(=O)NC4CC4)c(Cl)c3)c2cc1C(N)=O [LENVATINIB]	> 30 µM (inactive)
Cn1cc(-c2ccc(F)c(C(F)(F)F)c2)nc1C1CCN(c2ncnc3[nH]ncc23)CC1 [LY-2584702]	> 30 µM (inactive)

What follows are molecules tested against Glycogen synthase kinase-3 beta (Homo sapiens, UniProt P49841). Conditions: not given.
Sequence of Glycogen synthase kinase-3 beta (P49841 whole entry): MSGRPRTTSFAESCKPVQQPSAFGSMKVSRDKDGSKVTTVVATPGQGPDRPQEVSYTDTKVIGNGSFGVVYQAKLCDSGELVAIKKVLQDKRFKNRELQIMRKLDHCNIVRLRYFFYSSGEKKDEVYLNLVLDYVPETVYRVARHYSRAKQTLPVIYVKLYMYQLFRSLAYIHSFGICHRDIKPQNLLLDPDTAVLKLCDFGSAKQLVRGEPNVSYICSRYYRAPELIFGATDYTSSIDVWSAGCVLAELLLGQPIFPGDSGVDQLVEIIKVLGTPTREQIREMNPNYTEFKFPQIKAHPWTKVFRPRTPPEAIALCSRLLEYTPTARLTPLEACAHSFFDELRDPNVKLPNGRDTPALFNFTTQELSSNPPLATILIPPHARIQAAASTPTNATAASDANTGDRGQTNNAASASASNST

SMILES	Kd
COc1cc2nccc(Oc3ccc(NC(=O)NC4CC4)c(Cl)c3)c2cc1C(N)=O [LENVATINIB]	> 30 µM (inactive)

What follows are molecules tested against Mitogen-activated protein kinase 3 (Homo sapiens, UniProt P27361). Conditions: not given.
Sequence of Mitogen-activated protein kinase 3 (P27361 whole entry): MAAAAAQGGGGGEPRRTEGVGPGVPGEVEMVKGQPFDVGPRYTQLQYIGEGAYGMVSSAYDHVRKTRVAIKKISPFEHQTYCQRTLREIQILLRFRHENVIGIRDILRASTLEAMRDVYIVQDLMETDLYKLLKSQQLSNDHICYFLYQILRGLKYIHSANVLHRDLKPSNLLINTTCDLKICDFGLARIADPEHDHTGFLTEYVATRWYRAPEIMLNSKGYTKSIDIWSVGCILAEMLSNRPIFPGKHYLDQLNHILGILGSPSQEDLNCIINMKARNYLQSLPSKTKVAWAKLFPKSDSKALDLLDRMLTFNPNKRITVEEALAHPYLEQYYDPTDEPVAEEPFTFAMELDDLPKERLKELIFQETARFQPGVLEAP

SMILES	Kd
Cc1cc(Nc2cc(N3CCN(C)CC3)nc(/C=C/c3ccccc3)n2)n[nH]1 [ENMD-2076]	> 30 µM (inactive)
COc1cc2nccc(Oc3ccc(NC(=O)NC4CC4)c(Cl)c3)c2cc1C(N)=O [LENVATINIB]	> 30 µM (inactive)
Cn1cc(-c2ccc(F)c(C(F)(F)F)c2)nc1C1CCN(c2ncnc3[nH]ncc23)CC1 [LY-2584702]	> 30 µM (inactive)

These molecules were tested against T1, RNA cytidine acetyltransferase (Homo sapiens, UniProt Q9H0A0). Conditions: not given.
T1 sequence (Q9H0A0 whole entry): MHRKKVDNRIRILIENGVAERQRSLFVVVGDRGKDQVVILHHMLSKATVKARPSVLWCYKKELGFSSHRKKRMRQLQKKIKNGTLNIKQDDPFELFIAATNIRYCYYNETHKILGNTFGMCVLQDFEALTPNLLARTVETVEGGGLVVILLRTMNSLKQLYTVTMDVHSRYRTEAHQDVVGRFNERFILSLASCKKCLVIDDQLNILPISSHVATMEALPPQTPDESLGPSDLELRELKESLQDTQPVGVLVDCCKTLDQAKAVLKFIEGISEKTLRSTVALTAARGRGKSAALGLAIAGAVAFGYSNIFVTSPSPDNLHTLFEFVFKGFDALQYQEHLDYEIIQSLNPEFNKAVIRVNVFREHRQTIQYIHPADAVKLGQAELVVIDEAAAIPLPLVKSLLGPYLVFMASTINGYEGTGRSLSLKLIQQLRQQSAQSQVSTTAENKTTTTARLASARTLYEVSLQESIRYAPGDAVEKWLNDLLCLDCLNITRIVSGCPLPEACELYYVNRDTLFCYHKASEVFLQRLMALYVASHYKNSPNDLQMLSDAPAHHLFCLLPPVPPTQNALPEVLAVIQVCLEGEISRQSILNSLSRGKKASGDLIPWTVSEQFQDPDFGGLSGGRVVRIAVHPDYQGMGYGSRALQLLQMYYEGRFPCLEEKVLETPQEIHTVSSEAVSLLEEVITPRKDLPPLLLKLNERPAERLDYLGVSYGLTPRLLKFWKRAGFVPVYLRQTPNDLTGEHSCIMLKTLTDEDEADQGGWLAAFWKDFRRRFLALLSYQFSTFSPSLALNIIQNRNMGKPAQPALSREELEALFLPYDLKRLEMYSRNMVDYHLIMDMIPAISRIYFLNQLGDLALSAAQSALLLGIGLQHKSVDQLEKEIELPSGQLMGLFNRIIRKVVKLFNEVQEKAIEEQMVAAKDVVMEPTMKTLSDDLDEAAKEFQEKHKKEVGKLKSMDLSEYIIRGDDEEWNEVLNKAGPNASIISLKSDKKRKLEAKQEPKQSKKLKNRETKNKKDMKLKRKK

SMILES	Kd
Cc1cc(Nc2cc(N3CCN(C)CC3)nc(/C=C/c3ccccc3)n2)n[nH]1 [ENMD-2076]	> 30 µM (inactive)
CCn1c(-c2nonc2N)nc2c(C#CC(C)(C)O)ncc(OC[C@H]3CCCNC3)c21 [GSK-690693]	> 30 µM (inactive)
COc1cc2nccc(Oc3ccc(NC(=O)NC4CC4)c(Cl)c3)c2cc1C(N)=O [LENVATINIB]	> 30 µM (inactive)
Cn1cc(-c2ccc(F)c(C(F)(F)F)c2)nc1C1CCN(c2ncnc3[nH]ncc23)CC1 [LY-2584702]	> 30 µM (inactive)

Each molecule was assayed against Platelet-derived growth factor receptor beta (Homo sapiens, UniProt P09619). Conditions: not given.
Sequence of Platelet-derived growth factor receptor beta (P09619 whole entry): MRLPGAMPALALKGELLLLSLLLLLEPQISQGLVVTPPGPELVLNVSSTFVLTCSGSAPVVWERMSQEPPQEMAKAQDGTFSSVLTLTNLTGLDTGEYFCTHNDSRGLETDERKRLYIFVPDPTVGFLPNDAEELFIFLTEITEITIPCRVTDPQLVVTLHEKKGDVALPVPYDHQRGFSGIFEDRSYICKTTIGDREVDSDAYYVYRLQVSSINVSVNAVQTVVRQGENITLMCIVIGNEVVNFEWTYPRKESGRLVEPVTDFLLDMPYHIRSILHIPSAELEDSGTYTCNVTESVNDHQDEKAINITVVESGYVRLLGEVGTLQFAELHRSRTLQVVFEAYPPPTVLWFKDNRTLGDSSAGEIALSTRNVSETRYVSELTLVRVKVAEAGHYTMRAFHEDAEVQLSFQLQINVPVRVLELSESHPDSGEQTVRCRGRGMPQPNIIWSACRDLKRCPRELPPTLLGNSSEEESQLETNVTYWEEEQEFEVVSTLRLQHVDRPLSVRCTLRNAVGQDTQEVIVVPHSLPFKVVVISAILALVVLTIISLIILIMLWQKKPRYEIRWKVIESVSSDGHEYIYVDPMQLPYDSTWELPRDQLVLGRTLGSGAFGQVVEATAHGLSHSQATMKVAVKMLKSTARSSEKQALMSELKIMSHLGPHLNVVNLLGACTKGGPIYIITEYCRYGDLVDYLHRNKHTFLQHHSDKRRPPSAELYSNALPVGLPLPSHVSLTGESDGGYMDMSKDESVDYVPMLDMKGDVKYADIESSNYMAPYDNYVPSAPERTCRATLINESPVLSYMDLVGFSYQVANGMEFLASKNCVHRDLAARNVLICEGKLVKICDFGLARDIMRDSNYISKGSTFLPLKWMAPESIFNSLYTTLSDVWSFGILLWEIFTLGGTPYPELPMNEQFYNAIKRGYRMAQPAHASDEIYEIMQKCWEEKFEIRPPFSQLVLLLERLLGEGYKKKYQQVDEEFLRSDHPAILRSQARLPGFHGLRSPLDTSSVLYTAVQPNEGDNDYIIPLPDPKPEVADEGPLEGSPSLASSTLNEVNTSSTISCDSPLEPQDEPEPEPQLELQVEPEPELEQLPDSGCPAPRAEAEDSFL

SMILES	Kd
COc1cc2nccc(Oc3ccc(NC(=O)NC4CC4)c(Cl)c3)c2cc1C(N)=O [LENVATINIB]	0.316 µM (active)
Cn1cc(-c2ccc(F)c(C(F)(F)F)c2)nc1C1CCN(c2ncnc3[nH]ncc23)CC1 [LY-2584702]	> 30 µM (inactive)

What follows are molecules tested against Rho-associated protein kinase 2 (Homo sapiens, UniProt O75116). Conditions: not given.
Sequence of Rho-associated protein kinase 2 (O75116 whole entry): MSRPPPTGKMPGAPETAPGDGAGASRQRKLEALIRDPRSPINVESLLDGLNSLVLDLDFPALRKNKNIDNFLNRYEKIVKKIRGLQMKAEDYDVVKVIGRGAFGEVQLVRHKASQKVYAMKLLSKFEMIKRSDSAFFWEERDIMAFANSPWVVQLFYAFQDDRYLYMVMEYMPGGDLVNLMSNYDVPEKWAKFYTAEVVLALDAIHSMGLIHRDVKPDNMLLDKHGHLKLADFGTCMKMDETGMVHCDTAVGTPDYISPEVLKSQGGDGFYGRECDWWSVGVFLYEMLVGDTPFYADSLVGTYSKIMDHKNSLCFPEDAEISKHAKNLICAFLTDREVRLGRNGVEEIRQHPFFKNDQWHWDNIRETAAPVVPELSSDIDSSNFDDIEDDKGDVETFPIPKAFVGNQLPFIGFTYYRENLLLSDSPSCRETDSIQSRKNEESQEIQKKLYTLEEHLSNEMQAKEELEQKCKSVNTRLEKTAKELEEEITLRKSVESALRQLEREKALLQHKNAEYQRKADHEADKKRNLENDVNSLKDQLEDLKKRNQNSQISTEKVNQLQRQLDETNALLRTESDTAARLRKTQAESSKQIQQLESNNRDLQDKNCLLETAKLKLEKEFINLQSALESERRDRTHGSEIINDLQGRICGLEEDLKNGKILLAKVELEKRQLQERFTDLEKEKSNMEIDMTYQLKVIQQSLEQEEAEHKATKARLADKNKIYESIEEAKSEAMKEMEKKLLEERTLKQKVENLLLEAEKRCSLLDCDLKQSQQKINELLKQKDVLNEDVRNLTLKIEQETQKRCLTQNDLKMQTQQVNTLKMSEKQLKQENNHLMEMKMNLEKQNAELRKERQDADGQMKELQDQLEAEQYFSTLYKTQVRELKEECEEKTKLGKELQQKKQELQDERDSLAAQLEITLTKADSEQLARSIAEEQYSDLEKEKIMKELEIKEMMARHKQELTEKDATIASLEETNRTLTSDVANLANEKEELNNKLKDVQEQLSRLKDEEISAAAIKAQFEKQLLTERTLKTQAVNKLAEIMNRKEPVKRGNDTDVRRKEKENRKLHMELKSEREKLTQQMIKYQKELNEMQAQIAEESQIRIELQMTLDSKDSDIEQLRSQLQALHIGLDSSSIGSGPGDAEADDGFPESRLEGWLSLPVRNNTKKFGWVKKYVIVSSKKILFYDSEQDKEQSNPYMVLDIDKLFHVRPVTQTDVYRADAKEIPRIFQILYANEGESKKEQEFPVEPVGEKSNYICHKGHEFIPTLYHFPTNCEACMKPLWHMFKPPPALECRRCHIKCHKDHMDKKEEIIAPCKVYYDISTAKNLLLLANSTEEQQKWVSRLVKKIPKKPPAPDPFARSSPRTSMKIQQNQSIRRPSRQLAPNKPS

SMILES	Kd
COc1cc2nccc(Oc3ccc(NC(=O)NC4CC4)c(Cl)c3)c2cc1C(N)=O [LENVATINIB]	> 30 µM (inactive)
Cn1cc(-c2ccc(F)c(C(F)(F)F)c2)nc1C1CCN(c2ncnc3[nH]ncc23)CC1 [LY-2584702]	> 30 µM (inactive)

The molecules below were run against Ribosomal protein S6 kinase beta-1 (Homo sapiens, UniProt P23443). Conditions: not given.
Sequence of Ribosomal protein S6 kinase beta-1 (P23443 whole entry): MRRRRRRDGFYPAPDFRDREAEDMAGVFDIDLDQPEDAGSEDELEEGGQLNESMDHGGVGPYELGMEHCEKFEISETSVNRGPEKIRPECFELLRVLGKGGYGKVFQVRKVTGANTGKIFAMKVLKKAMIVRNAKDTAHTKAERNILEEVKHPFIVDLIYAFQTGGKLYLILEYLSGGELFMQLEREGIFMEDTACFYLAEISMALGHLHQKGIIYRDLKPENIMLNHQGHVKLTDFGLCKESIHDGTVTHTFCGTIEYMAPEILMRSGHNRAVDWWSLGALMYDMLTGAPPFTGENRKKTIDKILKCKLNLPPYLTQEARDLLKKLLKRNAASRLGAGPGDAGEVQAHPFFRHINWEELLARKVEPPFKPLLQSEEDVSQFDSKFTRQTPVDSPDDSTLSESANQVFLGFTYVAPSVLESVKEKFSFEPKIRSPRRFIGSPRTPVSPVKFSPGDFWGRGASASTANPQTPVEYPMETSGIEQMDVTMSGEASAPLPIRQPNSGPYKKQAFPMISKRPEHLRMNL

SMILES	Kd
Cn1cc(-c2ccc(F)c(C(F)(F)F)c2)nc1C1CCN(c2ncnc3[nH]ncc23)CC1 [LY-2584702]	0.015 µM (active)

Each molecule was assayed against T2, Signal recognition particle receptor subunit alpha (Homo sapiens, UniProt P08240). Conditions: not given.
T2 sequence (P08240 whole entry): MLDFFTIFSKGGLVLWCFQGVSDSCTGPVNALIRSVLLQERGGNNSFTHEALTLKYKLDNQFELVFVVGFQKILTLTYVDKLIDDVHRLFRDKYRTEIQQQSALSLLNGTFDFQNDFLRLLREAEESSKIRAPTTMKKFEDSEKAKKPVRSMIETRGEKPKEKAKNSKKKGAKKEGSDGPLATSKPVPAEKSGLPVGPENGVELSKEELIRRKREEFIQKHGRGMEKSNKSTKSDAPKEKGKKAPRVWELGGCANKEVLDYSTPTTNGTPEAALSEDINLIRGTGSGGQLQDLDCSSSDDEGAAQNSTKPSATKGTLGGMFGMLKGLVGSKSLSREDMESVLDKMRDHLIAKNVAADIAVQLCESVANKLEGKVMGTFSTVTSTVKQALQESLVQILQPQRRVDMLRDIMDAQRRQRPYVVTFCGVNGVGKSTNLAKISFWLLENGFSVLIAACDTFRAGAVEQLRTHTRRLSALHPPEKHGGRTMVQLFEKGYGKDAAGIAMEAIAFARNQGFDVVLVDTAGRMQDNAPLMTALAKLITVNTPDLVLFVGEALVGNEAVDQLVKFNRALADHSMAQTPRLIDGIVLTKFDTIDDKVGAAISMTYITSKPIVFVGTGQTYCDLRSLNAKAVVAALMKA

SMILES	pKd	Kd
Cc1cc(Nc2cc(N3CCN(C)CC3)nc(/C=C/c3ccccc3)n2)n[nH]1 [ENMD-2076]	8.10	–
CCn1c(-c2nonc2N)nc2c(C#CC(C)(C)O)ncc(OC[C@H]3CCCNC3)c21 [GSK-690693]	–	> 30 µM (inactive)
COc1cc2nccc(Oc3ccc(NC(=O)NC4CC4)c(Cl)c3)c2cc1C(N)=O [LENVATINIB]	–	> 30 µM (inactive)
Cn1cc(-c2ccc(F)c(C(F)(F)F)c2)nc1C1CCN(c2ncnc3[nH]ncc23)CC1 [LY-2584702]	–	> 30 µM (inactive)

These molecules were tested against T3, TGF-beta receptor type-1 (Homo sapiens, UniProt P36897). Conditions: not given.
T3 sequence (P36897 whole entry): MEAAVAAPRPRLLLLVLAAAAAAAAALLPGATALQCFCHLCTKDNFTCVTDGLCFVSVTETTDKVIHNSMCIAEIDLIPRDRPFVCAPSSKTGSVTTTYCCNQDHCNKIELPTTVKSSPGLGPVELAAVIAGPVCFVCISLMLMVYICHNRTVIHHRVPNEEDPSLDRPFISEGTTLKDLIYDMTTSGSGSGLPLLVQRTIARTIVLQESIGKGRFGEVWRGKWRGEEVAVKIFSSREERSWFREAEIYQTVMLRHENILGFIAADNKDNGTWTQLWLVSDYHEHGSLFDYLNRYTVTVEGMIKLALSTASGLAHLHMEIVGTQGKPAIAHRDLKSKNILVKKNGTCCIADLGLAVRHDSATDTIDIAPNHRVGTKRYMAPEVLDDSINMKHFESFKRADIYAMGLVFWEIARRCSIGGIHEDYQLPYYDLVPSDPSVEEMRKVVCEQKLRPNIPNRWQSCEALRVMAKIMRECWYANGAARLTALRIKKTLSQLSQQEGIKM

SMILES	Kd
Cc1cc(Nc2cc(N3CCN(C)CC3)nc(/C=C/c3ccccc3)n2)n[nH]1 [ENMD-2076]	> 30 µM (inactive)
COc1cc2nccc(Oc3ccc(NC(=O)NC4CC4)c(Cl)c3)c2cc1C(N)=O [LENVATINIB]	> 30 µM (inactive)
Cn1cc(-c2ccc(F)c(C(F)(F)F)c2)nc1C1CCN(c2ncnc3[nH]ncc23)CC1 [LY-2584702]	> 30 µM (inactive)

Each molecule was assayed against T4, Uncharacterized protein FLJ45252 (Homo sapiens, UniProt Q6ZSR9). Conditions: read-out: Kd apparent; k-562, colo 205, sk-n-be(2) and mv-4-11.
T4 sequence (Q6ZSR9 whole entry): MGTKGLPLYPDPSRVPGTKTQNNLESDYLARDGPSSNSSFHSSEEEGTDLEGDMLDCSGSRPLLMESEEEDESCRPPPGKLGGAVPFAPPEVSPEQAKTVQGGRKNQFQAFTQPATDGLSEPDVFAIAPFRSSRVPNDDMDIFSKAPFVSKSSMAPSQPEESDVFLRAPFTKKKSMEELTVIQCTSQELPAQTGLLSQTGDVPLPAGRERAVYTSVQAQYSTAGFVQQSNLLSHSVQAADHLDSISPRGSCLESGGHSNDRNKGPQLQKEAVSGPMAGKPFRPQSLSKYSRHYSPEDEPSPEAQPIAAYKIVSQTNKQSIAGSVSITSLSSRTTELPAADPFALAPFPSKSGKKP

SMILES	Kd
Cc1cc(Nc2cc(N3CCN(C)CC3)nc(/C=C/c3ccccc3)n2)n[nH]1 [ENMD-2076]	> 30 µM (inactive)
CCn1c(-c2nonc2N)nc2c(C#CC(C)(C)O)ncc(OC[C@H]3CCCNC3)c21 [GSK-690693]	> 30 µM (inactive)
COc1cc2nccc(Oc3ccc(NC(=O)NC4CC4)c(Cl)c3)c2cc1C(N)=O [LENVATINIB]	> 30 µM (inactive)
Cn1cc(-c2ccc(F)c(C(F)(F)F)c2)nc1C1CCN(c2ncnc3[nH]ncc23)CC1 [LY-2584702]	> 30 µM (inactive)

Source: ChEMBL document CHEMBL3991601, “The target landscape of clinical kinase drugs” (Science, 2017)
